The pIC50 is −log10 of the IC50, conventionally taken in molar units.

pIC50: −log10 of the molar value. Residues, ends and D or L forms follow the SMILES beside them. *: point of attachment. Cbz = O=C(OCc1ccccc1)*

This is an account of results in patent US20130190237A1, “METHODS FOR CATEGORISING CANCER SUCH AS BREAST CANCER” (IMPERIAL INNOVATIONS LIMITED, priority 2010, published 2013).

For test [1], the system named is ERα protein in MCF7 cells. The experiment in a line: Western blotting of ERα protein levels. The test is classed as cell-based, human. The note with it: for ERα protein levels under LMTK3 silencing with co-treatment: MCF7, LMTK3 siRNA plus compound. The procedure:
(A) MCF7 cells (1×10^6) were plated in 10 cm^2 plates in phenol red-free DMEM containing 10% DSS. The following day, cells were transfected with 20 nM CT siRNA or LMTK3 siRNA for 72 h and then treated or not (ET-OH) with E2 (10 nM) for 24 h. Cells were harvested, lysed and equal protein amounts were subjected to Western Blotting analysis using the indicated antibodies. β-actin was used as a control for sample loading. (B) Quantitative analysis of ERα and LMTK3 protein levels is given as fold of control. […] (C) MCF7 cells (5×10^4) were plated in 24-well plates and transfected with 20 nM CT siRNA or LMTK3 siRNA for 48 h. Gene expression of ERα was measured by qRT-PCR.
(§1) Whole cell lysates were prepared using NP40 lysis buffer (50 mM Tris-HCl, pH 8.0, 150 mM NaCl, 10% (v/v) glycerol, 1% NP40, 5 mM dithiothreitol (DTT), 1 mM EDTA, 1 mM EGTA, 50 μM leupeptin and 30 μg/ml aprotinin). These extracts were then clarified by centrifugation at 15000 rpm for 15 min at 4° C. for western blotting. The bicinchoninic acid (BCA) protein assay (Pierce) was used to determine the protein concentration of the lysates. […] The membranes were then blocked in TBS containing 0.1% (v/v) Tween20 and 5% (w/v) non-fat milk for 1 h and subsequently probed overnight with different antibodies following extensive washing with TBS/Tween and incubation with HRP-conjugated goat anti-rabbit IgG or goat anti-mouse IgG (1:1000 dilution) for 45 mins. Enhanced chemiluminescence (ECL) detection then allowed detection of the immunocomplexes. The intensity of the bands were quantified using Image J software (NIH, Bethesda, Md.).
as §1, with “45 min.” for “45 mins.”, “the immuno-complexes.” for “the immunocomplexes.”, “bands was” for “bands were”
For orientation: Immunoblotting shows a protein as a band on a membrane.

Test [2] addresses T1, LMTK3 kinase domain (Homo sapiens, UniProt Q96Q04).
T1 construct: GST (N); made in house; host or cells: insect cells
T1 sequence (Q96Q04 133-415): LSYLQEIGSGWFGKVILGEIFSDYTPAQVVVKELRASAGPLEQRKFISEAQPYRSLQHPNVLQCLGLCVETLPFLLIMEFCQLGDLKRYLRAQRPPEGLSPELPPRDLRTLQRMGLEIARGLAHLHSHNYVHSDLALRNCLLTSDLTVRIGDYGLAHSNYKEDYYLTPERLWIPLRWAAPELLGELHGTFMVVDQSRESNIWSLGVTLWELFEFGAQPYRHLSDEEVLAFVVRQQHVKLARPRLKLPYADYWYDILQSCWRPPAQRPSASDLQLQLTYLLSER
Put plainly: LMTK3 inhibitor screening assay (CisBio KinEASE STK S1 kit, ratiometric fluorescent read-out). It counts as biochemical. To be noted: for Average % Inhibition / Average pIC50: 10 nM LMTK3, 1 μM S1 peptide, ATP 10 μM; for Average pIC50: 120 mins at 37° C., N=5. The protocol: This exemplary assay has been developed to find inhibitors of LMTK3. The LMTK3 kinase domain (amino acids 133-415 of the full length kinase sequence, with an N-terminal GST tag) was expressed in insect cells and isolated via the GST N-terminal epitope.
Kinase reactions are set up in the presence of 1% DMSO with ATP added at around KM (=10 μM). Kinase activity is monitored using the CisBio KinEASE STK S1 kit using a ratiometric fluorescent read-out at 665 and 620 nm. The assay uses 10 nM LMTK3, 1 μM S1 peptide, 10 mM MgCl2 in the manufacturer buffer with extension of reaction time to 120 mins at 37° C.
Screening was performed in 384 low volume black microtitre plates with a final volume of 20 μl. The reaction was stopped with the addition of EDTA and detection reagents and fluorescence read on Pherastar. Data was normalised to the high control as specified by no inhibition and the low controls, equating to no activity (absence of ATP). Inhibitor activity was determined using concentration response curves, and using a four parameter fit to identify pIC50 values. Assay robustness was calculated using Z prime.

In test [3] the test system is Tamoxifen resistant cell lines (LCC9, MLET5, BT-474). Put plainly: WST-1 cell proliferation assay in tamoxifen resistant cell lines. The test is classed as cell-based. The note with it: 20 nM siRNA, Tamoxifen 100 nM. The protocol:
Tamoxifen resistant cell lines (LCC9, MLET5, BT-474) were transfected with 20 nM of control siRNA or LMTK3 siRNA in the presence or absence of Tamoxifen (100 nM). Cells were subjected to the WST-1 cell proliferation assay, on the day of transfection (day 0) and then consecutive 48 h intervals. Absorbance was measured at 460 nm. Results represent the mean of three experiments per cell line ±SE.
FIG. 28 Effects of LMTK3 silencing in tamoxifen-resistant cell lines. (a) BT-474, (b) MLET5 and, (c) LCC9 cells were transfected with LMTK3 siRNA in the presence or absence of tamoxifen (100 nM). Comparisons are shown amongst: i) siControl-transfected and tamoxifen treated cells (*), ii) siControl- and siLMTK3-transfected cells ($) and iii) tamoxifen treated and siLMTK3-transfected cells (p<0.05—Student's t test). Western blotting of AIB1 and p-ERα S118 protein expression levels are shown.
The colorimetric Rapid Cell Proliferation kit (Calbiochem, UK) was used. The assay is based on the incubation of cells with the tatrazolium salt WST-1, which is cleaved by mitochondrial dehydrogenases, functional only in viable cells. […] The following day, cells were incubated with the WST-1 for 30 min at 37° C., according to manufacturer's instructions, and the absorbance read with the microplate reader at 460 nm was considered to be Day 0. […] Readings were repeated consecutively in 48 h intervals. […]
Background: Tetrazolium assays rely on reduction of a dye to a coloured formazan, in cell work by metabolically active cells.

The subject of test [4] is LMTK3 gene expression. Put plainly: LMTK3 gene expression after E2 or tamoxifen. The test is classed as cell-based.
Experimental: Total RNA was isolated using the RNeasy kit (Qiagen). Reverse transcription was performed using high capacity cDNA reverse transcription kit (Applied Biosystems). RT-qPCR analysis was performed on a 7900HT Thermocycler (Applied Biosystems) using TaqMan mastermix and primers for TFF1, PGR, GREB1, FOXO3, FOXM1, LMTK1, LMTK2, LMTK3, MCL1 and GAPDH cDNAs, purchased from Applied Biosystems.

As to `C[C@]12CC[C@@H]3c4ccc(O)cc4CC[C@H]3[C@@H]1CC[C@@H]2O` [E2, Estradiol], in test [1] (MCF7, E2 10 nM 24 h or 20 nM siRNA 72 h), the “decrease of ERα protein levels” value is given as about 40%.

As to `CN(C)CCCn1cc(C2=C(c3c[nH]c4ccccc34)C(=O)NC2=O)c2ccccc21` [GF109203X], in test [2], the “Average % Inhibition” value was 107.89% and the “Average pIC50” value is on record as 9.88.

`COc1ccc2c(c1)c(C1=C(c3c[nH]c4ccccc34)C(=O)NC1=O)cn2CCCN(C)C` [Go 6983]: the “ERα protein levels under LMTK3 silencing with co-treatment” value (from here on “ERα protein levels under LMTK3 silencing”) in test [1] was “partly rescues the LMTK3 siRNA-induced down-regulation of ERα”.

In the case of `COC(=O)[C@@]1(O)C[C@H]2O[C@]1(C)n1c3ccccc3c3c4c(c5c6ccccc6n2c5c31)C(=O)NC4` [K-252a], in test [2], the pIC50 was 7.10 and the “Average % Inhibition” value is reported as 98.91%.

With `CCCCCCOC(=O)[C@]1(O)C[C@@H]2O[C@@]1(C)n1c3ccccc3c3c4c(c5c6ccccc6n2c5c31)C(=O)NC4` [KT5720], in test [2], the “Average % Inhibition” value turned out to be 98.65% and the “Average pIC50” value is reported as 9.93.

Take `CC(C)C[C@@H](C=O)NC(=O)[C@H](CC(C)C)NC(=O)[C@H](CC(C)C)NC(=O)OCc1ccccc1` [MG132] (Cbz-Leu-Leu-Leu-aldehyde): the “ERα protein levels under LMTK3 silencing” value in test [1] was “partly rescued ERα degradation”.

`CCCCCCCCCCCCCC(=O)O[C@@H]1[C@@H](C)[C@@]2(O)[C@@H](C=C(CO)C[C@]3(O)C(=O)C(C)=C[C@@H]23)[C@@H]2C(C)(C)[C@]12OC(C)=O` [PMA]: the “ERα protein levels under LMTK3 silencing” value in test [1] is recorded as “further degrades ERα”.

In the case of `CN[C@@H]1C[C@H]2O[C@@](C)([C@@H]1OC)n1c3ccccc3c3c4c(c5c6ccccc6n2c5c31)C(=O)NC4` [Staurosporine], in test [2], the pIC50 is 11.62 and the “Average % Inhibition” value was 108.86%.

On to `CC/C(=C(\c1ccccc1)c1ccc(OCCN(C)C)cc1)c1ccccc1` [Tamoxifen], for which the “increase of ERα protein levels” value in test [1] (MCF7, Tam 100 nM 24 h) was about 50%. The “effect on growth of tamoxifen-resistant cell lines” value in test [3] is given as “slightly affected basal cell growth”. The LMTK3 expression entry in test [4] is reported as “up-regulated”.
